From publication PMC9229919, “4-Aminoquinoline-Based Adamantanes as Potential Anticholinesterase Agents in Symptomatic Treatment of Alzheimer’s Disease” (Pharmaceutics, 2022)
Read-outs that look alike come from different tables or passages of the source.

Experiments:
recombinant human AChE = target: T1, recombinant human AChE (Homo sapiens, UniProt P22303); experiment: biochemical; format: biochemical
T1 construct: gift of Dr Florian Nachon (Armed Forces Biomedical Research Institute, Brétigny-sur-Orge, France)
T1 sequence (P22303 32-614): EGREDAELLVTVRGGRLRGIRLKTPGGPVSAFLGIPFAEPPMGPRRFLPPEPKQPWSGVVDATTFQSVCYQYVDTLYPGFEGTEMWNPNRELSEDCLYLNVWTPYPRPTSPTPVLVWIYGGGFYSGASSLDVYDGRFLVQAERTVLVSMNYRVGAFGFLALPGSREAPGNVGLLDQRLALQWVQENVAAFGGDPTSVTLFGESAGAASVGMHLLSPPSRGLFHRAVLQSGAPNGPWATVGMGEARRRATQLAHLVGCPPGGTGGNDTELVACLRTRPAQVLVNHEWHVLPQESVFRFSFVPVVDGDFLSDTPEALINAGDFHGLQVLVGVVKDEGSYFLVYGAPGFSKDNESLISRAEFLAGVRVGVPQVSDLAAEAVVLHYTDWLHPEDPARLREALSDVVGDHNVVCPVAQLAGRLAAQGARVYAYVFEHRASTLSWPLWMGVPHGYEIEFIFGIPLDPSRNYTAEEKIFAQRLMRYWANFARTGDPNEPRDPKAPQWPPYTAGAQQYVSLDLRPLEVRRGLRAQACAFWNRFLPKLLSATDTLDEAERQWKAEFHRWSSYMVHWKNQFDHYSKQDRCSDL
Protocol: (§1) Acetylthiocholine (ATCh) and 5,5′-dithiobis(2-nitrobenzoic acid) (DTNB) were purchased from Sigma-Aldrich, St. Louis, MO, USA. ATCh was dissolved in water and DTNB in 0.1 M sodium phosphate buffer (pH 7.4). The 4-aminoquinilines were dissolved in DMSO and all further dilutions were made in water.
(§2) The sources of AChE and BChE were purified human BChE and recombinant human AChE that was kindly provided by Dr Florian Nachon (Département de Toxicologie, Armed Forces Biomedical Research Institute, Brétigny-sur-Orge, France). […] The enzymes were diluted in sodium phosphate buffer 0.1 M (pH 7.4) containing 0.1% BSA.
(§3) Enzyme activities were measured spectrophotometrically using a slightly modified Ellman method, as described earlier. […] At least three inhibitor concentrations for each substrate concentration were used in at least three experiments. The apparent inhibition constant (Ki,app) was calculated using the Hunter–Downs Equation and linear regression analysis:(1) Ki,app=vi·i/v0−vi=Ki+Ki/KS·s where the y-intercept determines the enzyme-inhibitor dissociation constant (Ki), while the x-intercept determines the enzyme-substrate dissociation constant, KS.
(§4) The Hunter–Downs Equation was used under the assumption that the substrate, due to relatively low concentrations used in experiments, would bind only to the catalytic site of the enzymes, while the inhibitors would bind to both CAS and/or PAs. This allowed the type of inhibition to be determined from Ki,app vs. substrate concentration ([S]) dependency on Hunter–Downs plot.
(§5) The final content of DMSO in the measurements was up to 0.2%. […] The measurements were performed at 25 °C on a Tecan Infinite M200Pro plate reader (Tecan Austria GmbH, Salzburg, Austria).

purified human BChE = target: T2, purified human BChE (Homo sapiens, UniProt P06276); experiment: biochemical; format: biochemical
T2 construct: possibly also a gift of Dr Florian Nachon (the sentence is ambiguous)
T2 sequence (P06276 29-602): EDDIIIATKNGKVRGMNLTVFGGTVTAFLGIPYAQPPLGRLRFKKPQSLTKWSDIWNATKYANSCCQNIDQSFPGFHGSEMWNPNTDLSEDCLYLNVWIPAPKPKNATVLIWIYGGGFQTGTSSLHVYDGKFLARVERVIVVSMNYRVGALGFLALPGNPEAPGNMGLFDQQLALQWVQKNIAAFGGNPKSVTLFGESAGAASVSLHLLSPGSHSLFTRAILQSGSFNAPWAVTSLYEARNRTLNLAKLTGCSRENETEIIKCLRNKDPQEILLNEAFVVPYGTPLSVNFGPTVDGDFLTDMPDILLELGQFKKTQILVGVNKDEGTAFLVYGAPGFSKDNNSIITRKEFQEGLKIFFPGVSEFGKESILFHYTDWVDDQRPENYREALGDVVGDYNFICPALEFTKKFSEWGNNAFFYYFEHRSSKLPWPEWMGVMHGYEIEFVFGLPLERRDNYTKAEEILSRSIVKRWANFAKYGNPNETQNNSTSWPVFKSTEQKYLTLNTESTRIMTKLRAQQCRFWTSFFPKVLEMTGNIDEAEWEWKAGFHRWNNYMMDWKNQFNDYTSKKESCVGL
Protocol: as §1, §2, §3, §4, §5

[1] = Ferric reducing antioxidant power (FRAP) assay; settings: for FRAP: mean ± standard error of three experiments;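 as to FRAP: expressed as µM Fe2+ equivalents from an FeSO4·7H2O standard curve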
Protocol: . All the chemicals were purchased from Sigma-Aldrich (St. Louis, MO, USA), except for tripyridyltriazine (TPTZ) (Fluka, Buchs, Switzerland) and FeCl3 (Kemika, Zagreb, Croatia). The FRAP assay was assessed according to Benzie and Strain [53] with slight procedure adjustments for 96-well microplates. The method is based on the reduction of the ferric-tripyridyltriazine (Fe^3+-TPTZ) complex to ferrous tripyridyltriazine (Fe^2+-TPTZ) by the action of electron-donating compounds at a low pH. Briefly, the FRAP reagent was prepared by mixing acetate buffer (300 mM, pH 3.6), a solution of 10 mM TPTZ in 40 mM HCl, and 20 mM FeCl3 at 10:1:1 (v/v/v). Then, 240 μL of FRAP reagent and 10 μL of sample solution were added to a 96-well plate and incubated at 37 °C for 60 min. The absorbance was measured at 593 nm using a microplate reader (Infinite M200PRO, Tecan Austria GmbH, Salzburg, Austria) against a blank. The reducing capacity was determined for 10 and 100 µM compound concentrations. […]. All measurements were performed in three independent experiments. FRAP values, denominating the reduction of ferric-tripyridyltriazine (Fe^3+-TPTZ) to ferrous tripyridyltriazine (Fe^2+-TPTZ) by 4-aminoquinolines were calculated based on a standard curve obtained using […].

[2] = Reverse-phase thin-layer chromatographic lipophilicity (RF, RM0); format: physicochemical; settings: for RM0: intercept of RM = RM0 + bC; for b: slope of RM = RM0 + bC
Protocol: Chromatographic determination of lipophilicity
Merck, Darmstadt, Germany). The mobile phase contained organic modifier (methanol, acetone or dioxane), water and hydrochloric acid.
Methanol was varied in the range […]
with an increment of 10%. […]
before chromatogram development. The solvent developing distance was 4.5 cm. Detection of […]
All experiments were performed at ambient temperature (22±2 °C). Retention parameters were calculated as previously described. […]

[3] = Acetone/Water/Hydrochloric acid (conc.)
[4] = Dioxane/Water/Hydrochloric acid (conc.)
[5] = Methanol/Water/Hydrochloric acid (conc.)

SMILES: Clc1ccc2c(NCCCCCCNCC34CC5CC(CC(C5)C3)C4)ccnc2c1 [Compound 4]
- IS (recombinant human AChE; IS = Ki(BChE)/Ki(AChE), IS > 1 selective to AChE): 1.1
- Ki (recombinant human AChE; log (Ki/µM AChE), read-out: Y Measured 1 log(ki)Ache (converted)): 0.67 µM
- Ki (recombinant human AChE; ± standard error, 25 °C, ATCh substrate, read-out: Ki AChE): 0.67 ± 0.02 µM
- Ki (purified human BChE; logarithm of Ki in µM, BChE, dependent variable of the QSAR model, read-out: Y Measured 2 log(ki)Bche, log (Ki/µM BChE) (converted)): 0.76 µM
- Ki (purified human BChE; ± standard error, 25 °C, ATCh substrate, read-out: Ki BChE): 0.76 ± 0.06 µM
- FRAP ([1]; 10 µM compound): 1.9 ± 0.5 µM
- FRAP ([1]; 100 µM compound): 58 ± 10 µM
- RM0 [2, 3]: 2.036
- b [2, 3]: 3.254
- RM0 [2, 4]: 0.9103
- b [2, 4]: 1.922
- RM0 [2, 5]: 2.899
- b [2, 5]: 3.742
- RF, Methanol/Water/Hydrochloric acid (conc.), mobile phase I ([2]; RP-18 silica, I = 90%MeOH/5%H2O/5%HCl): 0.72
- RF, Dioxane/Water/Hydrochloric acid (conc.), mobile phase II ([2]; RP-18 silica, II = 80%Dioxane/15%H2O/5%HCl): 0.78
- RF, Methanol/Water/Hydrochloric acid (conc.), mobile phase II ([2]; RP-18 silica, II = 85%MeOH/10%H2O/5%HCl): 0.66
- RF, Acetone/Water/Hydrochloric acid (conc.), mobile phase III ([2]; RP-18 silica, III = 70%AC/25%H2O/5%HCl): 0.6
- RF, Dioxane/Water/Hydrochloric acid (conc.), mobile phase III ([2]; RP-18 silica, III = 70%Dioxane/25%H2O/5%HCl): 0.73
- RF, Methanol/Water/Hydrochloric acid (conc.), mobile phase III ([2]; RP-18 silica, III = 80%MeOH/15%H2O/5%HCl): 0.47
- RF, Dioxane/Water/Hydrochloric acid (conc.), mobile phase IV ([2]; RP-18 silica, IV = 60%Dioxane/35%H2O/5%HCl): 0.72
- RF, Acetone/Water/Hydrochloric acid (conc.), mobile phase IV ([2]; RP-18 silica, IV = 65%AC/30%H2O/5%HCl): 0.55
- RF, Methanol/Water/Hydrochloric acid (conc.), mobile phase IV ([2]; RP-18 silica, IV = 75%MeOH/20%H2O/5%HCl): 0.49
- RF, Acetone/Water/Hydrochloric acid (conc.), mobile phase IX ([2]; RP-18 silica, IX = 40%AC/55%H2O/5%HCl): 0.11
- RF, Methanol/Water/Hydrochloric acid (conc.), mobile phase IX ([2]; RP-18 silica, IX = 50%MeOH/45%H2O/5%HCl): 0.06
- RF, Dioxane/Water/Hydrochloric acid (conc.), mobile phase V ([2]; RP-18 silica, V = 50%Dioxane/45%H2O/5%HCl): 0.52
- RF, Acetone/Water/Hydrochloric acid (conc.), mobile phase V ([2]; RP-18 silica, V = 60%AC/35%H2O/5%HCl): 0.45
- RF, Methanol/Water/Hydrochloric acid (conc.), mobile phase V ([2]; RP-18 silica, V = 70%MeOH/25%H2O/5%HCl): 0.4
- RF, Dioxane/Water/Hydrochloric acid (conc.), mobile phase VI ([2]; RP-18 silica, VI = 40%Dioxane/55%H2O/5%HCl): 0.38
- RF, Acetone/Water/Hydrochloric acid (conc.), mobile phase VI ([2]; RP-18 silica, VI = 55%AC/40%H2O/5%HCl): 0.37
- RF, Methanol/Water/Hydrochloric acid (conc.), mobile phase VI ([2]; RP-18 silica, VI = 65%MeOH/30%H2O/5%HCl): 0.31
- RF, Acetone/Water/Hydrochloric acid (conc.), mobile phase VII ([2]; RP-18 silica, VII = 50%AC/45%H2O/5%HCl): 0.33
- RF, Methanol/Water/Hydrochloric acid (conc.), mobile phase VII ([2]; RP-18 silica, VII = 60%MeOH/35%H2O/5%HCl): 0.2
- RF, Acetone/Water/Hydrochloric acid (conc.), mobile phase VIII ([2]; RP-18 silica, VIII = 45%AC/50%H2O/5%HCl): 0.26
- RF, Methanol/Water/Hydrochloric acid (conc.), mobile phase VIII ([2]; RP-18 silica, VIII = 55%MeOH/40%H2O/5%HCl): 0.13

SMILES: Nc1c2c(nc3ccccc13)CCCC2 [Tacrine, reference compound]
- FRAP ([1]; 10 µM compound): 3.4 ± 0.0 µM
- FRAP ([1]; 100 µM compound): 15 ± 2 µM
- reducing power (in words) ([1]; 10 and 100 µM): negligible reducing power

SMILES: Cc1c(C)c2c(c(C)c1O)CCC(C)(C(=O)O)O2 (stereo not drawn) [Trolox, reference compound]
- FRAP ([1]; 10 µM compound): 523 ± 8 µM
- FRAP ([1]; 100 µM compound): 5812 ± 68 µM
